27 compounds from ChEMBL document CHEMBL1158638, “MMP-13 selective isonipecotamide alpha-sulfone hydroxamates” (Bioorg Med Chem Lett, 2010) can be followed below.

Data set [1] deals with Matrix metalloproteinase-14 (Homo sapiens, UniProt P50281). The experiment in a line: Inhibition of MMP14.
Data set [2] has as its target Stromelysin-1 (Homo sapiens, UniProt P08254). The experiment in a line: Inhibition of MMP3.
The target of data set [3] is Neutrophil collagenase (Homo sapiens, UniProt P22894). The experiment in a line: Inhibition of MMP8.
Data set [4] can be described thus: Bioavailability in po dosed rat. The conditions noted are these: in vivo. In kind it is ADME, organism-based.
Data set [5] has as its target Matrix metalloproteinase-9 (Homo sapiens, UniProt P14780). The experiment in a line: Inhibition of MMP9.
The nature of data set [6]: Half life in po dosed rat. In kind it is ADME, organism-based. Particulars: in vivo.
Data set [7] deals with T1, Interstitial collagenase (Homo sapiens, UniProt P03956).
T1 sequence (P03956 whole entry): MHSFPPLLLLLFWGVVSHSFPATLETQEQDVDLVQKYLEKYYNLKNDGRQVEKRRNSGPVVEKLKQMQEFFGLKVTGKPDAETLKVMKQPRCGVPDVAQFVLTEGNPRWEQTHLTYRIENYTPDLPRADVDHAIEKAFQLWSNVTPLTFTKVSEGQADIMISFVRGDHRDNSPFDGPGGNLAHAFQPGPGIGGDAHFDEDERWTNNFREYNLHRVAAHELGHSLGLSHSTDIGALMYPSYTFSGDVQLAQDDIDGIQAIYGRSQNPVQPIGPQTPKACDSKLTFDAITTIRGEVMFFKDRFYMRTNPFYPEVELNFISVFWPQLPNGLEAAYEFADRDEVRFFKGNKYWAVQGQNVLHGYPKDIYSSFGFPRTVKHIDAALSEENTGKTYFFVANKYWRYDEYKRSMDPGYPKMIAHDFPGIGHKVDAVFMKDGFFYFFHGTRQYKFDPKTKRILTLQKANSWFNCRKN
The experiment in a line: Inhibition of MMP1.

Data set [8] concerns the target 72 kDa type IV collagenase (Homo sapiens, UniProt P08253). The experiment in a line: Inhibition of MMP2.
Data set [9] can be described thus: Selectivity ratio of IC50 for MMP2 to MMP13.
Data set [10] deals with Collagenase 3 (Homo sapiens, UniProt P45452).

Bounds are passed on as bounds.

Neutrophil collagenase, sequence (P22894 whole entry): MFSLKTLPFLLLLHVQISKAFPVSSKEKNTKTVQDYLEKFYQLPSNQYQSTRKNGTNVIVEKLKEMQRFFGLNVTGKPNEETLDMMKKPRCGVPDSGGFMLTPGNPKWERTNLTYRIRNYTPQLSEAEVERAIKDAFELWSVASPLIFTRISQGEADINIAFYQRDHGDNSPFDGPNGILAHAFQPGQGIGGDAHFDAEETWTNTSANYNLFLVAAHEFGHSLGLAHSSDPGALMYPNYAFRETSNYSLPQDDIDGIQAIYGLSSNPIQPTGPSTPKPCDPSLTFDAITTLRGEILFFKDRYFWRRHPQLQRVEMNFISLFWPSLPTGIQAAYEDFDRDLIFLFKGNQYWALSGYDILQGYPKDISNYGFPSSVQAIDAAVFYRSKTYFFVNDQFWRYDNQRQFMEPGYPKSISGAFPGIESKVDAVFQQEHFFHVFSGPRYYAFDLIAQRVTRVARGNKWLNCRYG
72 kDa type IV collagenase, sequence (P08253 whole entry): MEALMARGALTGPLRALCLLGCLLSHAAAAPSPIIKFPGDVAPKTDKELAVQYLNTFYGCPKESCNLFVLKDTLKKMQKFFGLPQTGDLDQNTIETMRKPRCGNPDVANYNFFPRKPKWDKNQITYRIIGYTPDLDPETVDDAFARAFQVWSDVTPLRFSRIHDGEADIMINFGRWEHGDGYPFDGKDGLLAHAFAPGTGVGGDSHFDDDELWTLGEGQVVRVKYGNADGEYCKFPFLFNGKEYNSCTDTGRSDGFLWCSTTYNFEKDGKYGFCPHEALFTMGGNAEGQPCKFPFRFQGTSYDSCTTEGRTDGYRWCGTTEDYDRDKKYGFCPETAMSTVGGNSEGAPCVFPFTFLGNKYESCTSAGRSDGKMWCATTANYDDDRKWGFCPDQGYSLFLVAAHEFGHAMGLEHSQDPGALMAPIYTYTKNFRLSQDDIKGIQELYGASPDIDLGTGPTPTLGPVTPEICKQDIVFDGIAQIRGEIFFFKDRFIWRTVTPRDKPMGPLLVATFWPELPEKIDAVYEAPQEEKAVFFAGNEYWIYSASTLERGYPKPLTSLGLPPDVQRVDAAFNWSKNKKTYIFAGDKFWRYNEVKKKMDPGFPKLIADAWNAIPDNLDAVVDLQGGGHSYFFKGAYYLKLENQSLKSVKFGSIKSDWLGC
Stromelysin-1, sequence (P08254 whole entry): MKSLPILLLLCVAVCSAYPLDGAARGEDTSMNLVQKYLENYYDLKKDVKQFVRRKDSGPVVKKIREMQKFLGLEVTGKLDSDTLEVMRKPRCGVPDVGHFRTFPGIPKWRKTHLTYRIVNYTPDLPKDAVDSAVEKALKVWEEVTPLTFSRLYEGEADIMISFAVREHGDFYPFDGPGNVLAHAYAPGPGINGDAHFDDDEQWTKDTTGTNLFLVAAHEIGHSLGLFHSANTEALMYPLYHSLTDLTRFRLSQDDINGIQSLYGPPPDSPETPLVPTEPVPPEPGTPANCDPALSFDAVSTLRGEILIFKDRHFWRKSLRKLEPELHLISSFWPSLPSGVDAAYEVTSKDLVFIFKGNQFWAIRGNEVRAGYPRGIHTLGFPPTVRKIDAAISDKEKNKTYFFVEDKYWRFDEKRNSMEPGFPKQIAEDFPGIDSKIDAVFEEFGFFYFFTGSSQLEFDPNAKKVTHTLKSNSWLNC
Matrix metalloproteinase-9, sequence (P14780 whole entry): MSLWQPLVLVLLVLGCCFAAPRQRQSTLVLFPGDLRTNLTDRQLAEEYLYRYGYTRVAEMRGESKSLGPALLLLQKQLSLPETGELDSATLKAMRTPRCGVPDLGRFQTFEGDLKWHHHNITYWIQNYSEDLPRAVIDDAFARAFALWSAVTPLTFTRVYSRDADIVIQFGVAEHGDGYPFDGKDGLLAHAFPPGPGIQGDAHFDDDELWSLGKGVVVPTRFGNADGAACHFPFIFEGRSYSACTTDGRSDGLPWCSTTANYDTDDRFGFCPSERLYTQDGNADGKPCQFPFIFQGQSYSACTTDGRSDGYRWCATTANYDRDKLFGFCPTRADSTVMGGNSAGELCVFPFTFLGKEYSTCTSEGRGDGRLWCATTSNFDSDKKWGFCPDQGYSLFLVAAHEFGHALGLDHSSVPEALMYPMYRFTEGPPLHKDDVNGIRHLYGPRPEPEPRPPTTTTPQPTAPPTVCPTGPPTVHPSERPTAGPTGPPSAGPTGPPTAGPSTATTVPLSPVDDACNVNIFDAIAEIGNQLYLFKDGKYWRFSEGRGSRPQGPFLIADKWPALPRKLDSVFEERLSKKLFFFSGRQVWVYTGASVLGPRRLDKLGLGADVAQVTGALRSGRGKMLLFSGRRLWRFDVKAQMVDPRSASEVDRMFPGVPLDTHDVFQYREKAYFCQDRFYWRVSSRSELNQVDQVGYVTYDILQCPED

With `COCCN1CCC(C(=O)NO)(S(=O)(=O)c2ccc(N3CCC(C(=O)Nc4ccccc4)CC3)cc2)CC1`, the IC50 in data set [1] came out at 10000 nM; in [2] it was 370 nM; in data set [3] it was 10000 nM; in [5], 1230 nM; in data set [7] it was 10000 nM. In addition, the bioavailability in data set [4] stood at 4.2%. Moreover, the half-life in [6] is 49.8 min.
Consider `CN(C)CCN1CCN(C(=O)C2CCN(c3ccc(S(=O)(=O)C4(C(=O)NO)CCOCC4)cc3)CC2)CC1`, for which the IC50 in data set [8] is more than 10000 nM. Further, the Ratio IC50 in [9] was more than 111.
In the case of `COc1ccccc1N1CCN(C(=O)C2CCN(c3ccc(S(=O)(=O)C4(C(=O)NO)CCOCC4)cc3)CC2)CC1`, the Ratio IC50 in [9] was determined as 250.
Regarding `COc1cc2c(cc1OC)CN(C(=O)C1CCN(c3ccc(S(=O)(=O)C4(C(=O)NO)CCOCC4)cc3)CC1)CC2`, the IC50 in data set [8] was 2400 nM.
As for `Cc1cccc(N2CCN(C(=O)C3CCN(c4ccc(S(=O)(=O)C5(C(=O)NO)CCOCC5)cc4)CC3)CC2)c1C`, the IC50 in data set [1] was more than 10000 nM; in data set [2], 160 nM; in [8], 6000 nM; in [3], more than 10000 nM; in data set [10] it was 4 nM; in data set [5] it was more than 10000 nM. Further, the 50% inhibitory concentration (IC50) in data set [7] is more than 10000 nM. The Ratio IC50 in [9] was 1500.
As for `COCCN1CCC(C(=O)NO)(S(=O)(=O)c2ccc(N3CCC(C(=O)N4CCN(c5cccc(C)c5C)CC4)CC3)cc2)CC1`, the IC50 in data set [8] is 400 nM; in data set [10] it was 70 nM; in data set [7] it was more than 10000 nM.
As for `COCCN1CCC(C(=O)NO)(S(=O)(=O)c2ccc(N3CCC(C(=O)N4CC(C)NC(C)C4)CC3)cc2)CC1` (centres undefined), the 50% inhibitory concentration (IC50) was 1700 nM in data set [8] and 50 nM in data set [10]. Also, the Ratio IC50 in data set [9] was 34.
Take `O=C(C1CCN(c2ccc(S(=O)(=O)C3(C(=O)NO)CCOCC3)cc2)CC1)N1CCN(c2ncccn2)CC1`: the Ratio IC50 in data set [9] turned out to be 250.
Regarding `O=C(C1CCN(c2ccc(S(=O)(=O)C3(C(=O)NO)CCOCC3)cc2)CC1)N1CCN(CCc2ccccc2)CC1`, the values for the half-maximal inhibitory concentration (IC50) in [8] and in [10] were 900 nM and 25.1 nM, respectively. Further, the Ratio IC50 in data set [9] was found to be 36.
Regarding `CC(C)N1CCN(C(=O)C2CCN(c3ccc(S(=O)(=O)C4(C(=O)NO)CCOCC4)cc3)CC2)CC1`, in [9], the Ratio IC50 came out at 196.
Take `Cc1ccc(N2CCN(C(=O)C3CCN(c4ccc(S(=O)(=O)C5(C(=O)NO)CCOCC5)cc4)CC3)CC2)c(C)c1`: in data set [9], the Ratio IC50 worked out at 459.
Turning to `O=C(C1CCN(c2ccc(S(=O)(=O)C3(C(=O)NO)CCOCC3)cc2)CC1)N1CCN(c2ccccc2F)CC1`, the Ratio IC50 in data set [9] was 209.
Turning to `O=C(C1CCN(c2ccc(S(=O)(=O)C3(C(=O)NO)CCOCC3)cc2)CC1)N1CCN(c2ccccn2)CC1`, the Ratio IC50 in data set [9] came to 336.
Turning to `C#CCN(C)C(=O)C1CCN(c2ccc(S(=O)(=O)C3(C(=O)NO)CCOCC3)cc2)CC1`, the IC50 worked out at 2100 nM in data set [8] and 24.5 nM in data set [10]. Besides, the Ratio IC50 in data set [9] was found to be 86.
Take `CC(=O)N1CCN(C(=O)C2CCN(c3ccc(S(=O)(=O)C4(C(=O)NO)CCOCC4)cc3)CC2)CC1`: the Ratio IC50 in data set [9] is 50.
Still for that read-out and setting: under `O=C(C1CCN(c2ccc(S(=O)(=O)C3(C(=O)NO)CCOCC3)cc2)CC1)N1CCN(c2ccncc2)CC1` stands 58.
For `COCCN1CCN(C(=O)C2CCN(c3ccc(S(=O)(=O)C4(C(=O)NO)CCOCC4)cc3)CC2)CC1`, the 50% inhibitory concentration (IC50) is 7000 nM in data set [8] and 45 nM in data set [10]. In addition, the Ratio IC50 in [9] stood at 156.
As to `CC1CN(C(=O)C2CCN(c3ccc(S(=O)(=O)C4(C(=O)NO)CCOCC4)cc3)CC2)CC(C)N1` (centres undefined), the IC50 in data set [8] was found to be 7300 nM.
As for `CN(Cc1ccccc1)C(=O)C1CCN(c2ccc(S(=O)(=O)C3(C(=O)NO)CCN(C4CC4)CC3)cc2)CC1`, the IC50 in data set [8] worked out at 3500 nM; in [10], 20 nM. Moreover, the Ratio IC50 in data set [9] worked out at 175.
For `CC(=O)c1ccc(N2CCN(C(=O)C3CCN(c4ccc(S(=O)(=O)C5(C(=O)NO)CCOCC5)cc4)CC3)CC2)cc1`, in data set [9], the Ratio IC50 was 104.
Still for that read-out and setting: under `O=C(C1CCN(c2ccc(S(=O)(=O)C3(C(=O)NO)CCOCC3)cc2)CC1)N1CCN(c2ccc(F)cc2)CC1` stands 267.
On to `O=C(C1CCN(c2ccc(S(=O)(=O)C3(C(=O)NO)CCOCC3)cc2)CC1)N1CCc2ccccc2C1`, for which the IC50 in data set [8] amounted to 2100 nM; in data set [10], 9 nM. Besides, the Ratio IC50 in data set [9] came to 233.
With `C[C@@H]1COC[C@H](C)N1C(=O)C1CCN(c2ccc(S(=O)(=O)C3(C(=O)NO)CCOCC3)cc2)CC1`, the IC50 in data set [8] was more than 10000 nM; in data set [10] it was 18.1 nM.
For `C=CCN(C)C(=O)C1CCN(c2ccc(S(=O)(=O)C3(C(=O)NO)CCOCC3)cc2)CC1`, the figures for the IC50 in [8] and in data set [10] were 2900 nM and 35 nM, respectively. Besides, in data set [9], the Ratio IC50 amounted to 83.
As for `O=C(C1CCN(c2ccc(S(=O)(=O)C3(C(=O)NO)CCOCC3)cc2)CC1)N1CCN(CCO)CC1`, in data set [9], the Ratio IC50 stood at 150.
On to `Cc1cccc(N2CCN(C(=O)C3CCN(c4ccc(S(=O)(=O)C5(C(=O)NO)CCN(C6CC6)CC5)cc4)CC3)CC2)c1C`, for which the IC50 was more than 10000 nM in data set [1]; 550 nM in data set [2]; 6350 nM in data set [8]; 9400 nM in [3]; 27.7 nM in data set [10]; more than 10000 nM in data set [5]. The same compound displayed a half-inhibitory concentration (IC50) in data set [7] of more than 10000 nM.
On to `O=C(C1CCN(c2ccc(S(=O)(=O)C3(C(=O)NO)CCOCC3)cc2)CC1)N1CCN(c2cnccn2)CC1`, for which, in data set [9], the Ratio IC50 amounted to 34.
